According to patent US20220402862A1 (Intellia Therapeutics, Inc., priority 2019, published 2022):

Legend:
Transthyretin (TTR) = assay: Serum TTR ELISA in mice after LNP dosing; type: in vivo, CD-1 female mice; conditions: guide G282 experiments; for Serum TTR % TSS: mouse serum TTR relative to TSS control; for Serum TTR: mouse serum, ELISA
How it was run: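 Female CD-1 mice, 6–10 weeks, given LNPs by tail-vein injection (~10 mL/kg), 0.1 mg/kg unless noted; serum taken at day 6 or 7 by cardiac puncture. Total mouse TTR by ELISA on sera diluted 10,000-fold (0.1 mg/kg) or 10,000- and 2,500-fold (0.3 mg/kg).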

[1] = pKa measurement of unformulated amine lipid (fluorescence, method of Jayaraman et al.); type: physicochemical; conditions: 100 μM in 0.1 M phosphate buffer, pH 2.0-12.0
Method: The pKa of each amine lipid was determined according to the method in Jayaraman, et al. (Angewandte Chemie, 2012) with the following adaptations. […] Lipid was diluted to 100 μM in 0.1 M phosphate buffer (Boston Bioproducts) where the pH ranged from 2.0-12.0. Fluorescence intensity was measured using excitation and emission wavelengths of 321 nm and 448 nm.

[2] = Dynamic light scattering of LNPs: Z-average diameter, number average diameter, PDI; type: physicochemical; conditions: LNP, sg:mRNA 1:1, N/P about 6, 50/9/38/3; Table 2, Experiments 2-20
How it was run: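 LNP samples were diluted in PBS and measured by DLS to give intensity-based Z-average diameter, number average diameter and polydispersity index. PDI describes size spread around the mean, with zero meaning a uniform population.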

[3] = RNA encapsulation efficiency of LNPs (Ribogreen fluorescence assay); type: physicochemical; conditions: LNP, sg:mRNA 1:1, N/P about 6, amine lipid/DSPC/cholesterol/PEG-2k-DMG 50/9/38/3; Table 2, Experiments 2-20
How it was run: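 LNPs were diluted in 1× TE with 0.2% Triton X-100 (total RNA) or without it (free RNA), stained with RiboGreen for ~10 min at room temperature in the dark, and read at Ex 488/Em 525 nm against standard curves of the starting RNA. Encapsulation efficiency = (Total − Free)/Total.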

pKa [1]	Number mean (nm) [2]	PDI [2]	Z-avg (nm) [2]	Encapsulation (%) [3]	SMILES	Serum TTR % TSS (Transthyretin (TTR))	Serum TTR (Transthyretin (TTR))
5.9	40.95 nm	0.086	58.93 nm	97%	CCCCC/C=C\C/C=C\CCCCCCCC(=O)OCC(COC(=O)CCC(OCCCCCCCC)OCCCCCCCC)COC(=O)N1CCN(C)CC1 (stereo not drawn) [Compound 47, 3-((4,4-bis(octyloxy)butanoyl)oxy)-2-((((9Z,12Z)-octadeca-9,12-dienoyl)oxy)methyl)propyl 4-methylpiperazine-1-carboxylate]	96%	1075 µg/mL
6.16	74.41 nm	0.009	89.55 nm	99%	CCCCCC/C=C\COC(=O)CCCCCCCC(=O)OCC(COC(=O)CCC(OCCCCCCCCC)OCCCCCCCCC)COC(=O)OCCCN(CC)CC (stereo not drawn) [Compound 83, (Z)-1-(3-((4,4-bis(nonyloxy)butanoyl)oxy)-2-((((3-(diethylamino)propoxy)carbonyl)oxy)methyl)propyl) 9-(non-2-en-1-yl) nonanedioate]	54%	488 µg/mL
6.31	94.01 nm	0.038	117.5 nm	98%	CCCCCCCCCCOC(=O)CCCCCCCC(=O)OCC(COC(=O)CCCCCC(=O)OC(CCCCCCCC)CCCCCCCC)COC(=O)CCCN(C)C (stereo not drawn) [Compound 82, 1-decyl 9-(3-((4-(dimethylamino)butanoyl)oxy)-2-(((7-(heptadecan-9-yloxy)-7-oxoheptanoyl)oxy)methyl)propyl) nonanedioate]	126%	953 µg/mL
6.52	81.57 nm	0.006	98.47 nm	98%	CCCCCCCCCCOC(=O)CCCCCCCC(=O)OCC(COC(=O)CCCC(=O)OC(CCCCCCCC)CCCCCCCC)COC(=O)OCCC1CCCN1C (stereo not drawn) [Compound 87, 1-decyl 9-(3-((5-(heptadecan-9-yloxy)-5-oxopentanoyl)oxy)-2-((((2-(1-methylpyrrolidin-2-yl)ethoxy)carbonyl)oxy)methyl)propyl) nonanedioate]	68%	511 µg/mL
6.14	74.5 nm	0.029	91.1 nm	99%	CCCCCCCCCC(CC)OC(=O)CCCCCCCC(=O)OCC(COC(=O)CCC(OCCCCCCCC)OCCCCCCCC)COC(=O)OCCCN(CC)CC (stereo not drawn) [Compound 95, 1-(3-((4,4-bis(octyloxy)butanoyl)oxy)-2-((((3-(diethylamino)propoxy)carbonyl)oxy)methyl)propyl) 9-(dodecan-3-yl) nonanedioate]	54%	408 µg/mL
6.64	94.5 nm	0.008	110.6 nm	97%	CCCCCCCCCCOC(=O)CCCCCCCC(=O)OCC(COC(=O)CCC(OCCCCCCCC)OCCCCCCCC)COC(=O)NCCN(CC)CC (stereo not drawn) [Compound 73, 1-(3-((4,4-bis(octyloxy)butanoyl)oxy)-2-((((2-(diethylamino)ethyl)carbamoyl)oxy)methyl)propyl) 9-decyl nonanedioate]	60%	550 µg/mL

Further lines, the compound ahead of its results:

SMILES	pKa [1]	Number mean (nm) [2]	PDI [2]	Z-avg (nm) [2]	Encapsulation (%) [3]	Serum TTR % TSS (Transthyretin (TTR))	Serum TTR (Transthyretin (TTR))
CCCCC/C=C\C/C=C\CCCCCCCC(=O)OCC(COC(=O)CCC(OCCCCCCCC)OCCCCCCCC)COC(=O)NCC1CCCN1C (stereo not drawn) [Compound 39, 3-((4,4-bis(octyloxy)butanoyl)oxy)-2-(((((1-methylpyrrolidin-2-yl)methyl)carbamoyl)oxy)methyl)propyl (9Z,12Z)-octadeca-9,12-dienoate]	7.34	64.79 nm	0.024	79.81 nm	97%	82%	656 µg/mL
CCCCC/C=C\C/C=C\CCCCCCCC(=O)OCC(COC(=O)CCC(OCCCCCCCC)OCCCCCCCC)COC(=O)NC1CCN(CC)C1 (stereo not drawn) [Compound 41, 3-((4,4-bis(octyloxy)butanoyl)oxy)-2-((((1-ethylpyrrolidin-3-yl)carbamoyl)oxy)methyl)propyl (9Z,12Z)-octadeca-9,12-dienoate]	7.82	54.1 nm	0.074	74.83 nm	98%	95%	758 µg/mL
CCCCC/C=C\C/C=C\CCCCCCCC(=O)OCC(COC(=O)CCCN(C)C)COC(=O)CCC(OCCCCCCCC)OCCCCCCCC (stereo not drawn) [Compound 26, 3-((4,4-bis(octyloxy)butanoyl)oxy)-2-(((4-(dimethylamino)butanoyl)oxy)methyl)propyl (9Z,12Z)-octadeca-9,12-dienoate]	7.39	73 nm	0.000	88 nm	98%	112%	1008 µg/mL
CCCCC/C=C\C/C=C\CCCCCCCC(=O)OCC(COC(=O)CCCCN(C)C)COC(=O)CCC(OCCCCCCCC)OCCCCCCCC (stereo not drawn) [Compound 25]	7.65	61 nm	0.080	87 nm	99%	112%	1013 µg/mL
CCCCC/C=C\C/C=C\CCCCCCCC(=O)OCC(COC(=O)CCC(OCCCCCCCC)OCCCCCCCC)COC(=O)C1(C)CCN(C)CC1 (stereo not drawn) [Compound 32, 3-((4,4-bis(octyloxy)butanoyl)oxy)-2-((((9Z,12Z)-octadeca-9,12-dienoyl)oxy)methyl)propyl 1,4-dimethylpiperidine-4-carboxylate]	7.32	61 nm	0.040	77 nm	99%	43%	388 µg/mL
CCCCC/C=C\C/C=C\CCCCCCCC(=O)OCC(COC(=O)CCC(OCCCCCCCC)OCCCCCCCC)COC(=O)NCC1CCCCN1CC (stereo not drawn) [Compound 38, 3-((4,4-bis(octyloxy)butanoyl)oxy)-2-(((((1-ethylpiperidin-2-yl)methyl)carbamoyl)oxy)methyl)propyl (9Z,12Z)-octadeca-9,12-dienoate]	7.17	74.58 nm	0.019	91.5 nm	96%	60%	481 µg/mL
